Data as given in patent publication US20240197728A1, “METHODS AND PHARMACEUTICAL COMPOSITIONS FOR TREATING REFRACTORY EPILEPSY” (INSERM (INSTITUT NATIONAL DE LA SANTÉ ET DE LA RECHERCHE …, priority 2021, published 2024).

System: lithium-pilocarpine model of mTLE
Test: Lithium-pilocarpine mouse model of mTLE, telemetric ECoG seizure detection
Format: in vivo, C57Bl6/J mice
Details: PCPZ 2 mg/kg i.p. twice daily
Experimental: Our procedures were all approved by local ethics committee (Charles Darwin, Apafis 202008050923999 v4). 8 weeks-old male C57B16/J mice were used in a pilocarpine-based model of temporal lobe epilepsy as described. In brief, animals received an intraperitoneal (ip) injection of LiCl (423 mg/kg) and scopolamine (1 mg/kg), respectively 18-24 hours and 1 hour prior to pilocarpine. Pilocarpine (75 mg/kg) was then injected ip and mice were continuously monitored for the onset of status epilepticus (SE). In mice in which the first pilocarpine injection had not triggered SE after one hour, a second injection at 20 mg/kg was performed. SE was interrupted one hour after onset by ip injection of diazepam and ketamine (both at 10 mg/kg). […] They were monitored daily for weight, behavior and were provided with enriched liquid food (Fortimel Energy®) for the first 5-7 days post SE. […]
ECoG probe implantation was performed 28 days post SE in all mice except for 1 mouse that was implanted prior to SE induction in order to monitor chronic seizure onset (FIG. 6D). […] One week after implantation, ECoG signal (0.3-160 Hz) were recorded continuously using a telemetric Octal Data Receiver (OpenSourceInstruments), amplified 100× and acquired at 512 Hz. Recordings were analyzed offline using Event Classification Processor ECP20 under NeuroArchiver 132. […]

CN1CCN(CCCN2c3ccccc3Sc3ccc(Cl)cc32)CC1 [PCPZ, prochlorperazine]
seizure frequency (chronic phase days 40-45 post-SE, saline group 2.86±0.83): 0.95±0.42 per day | reduction in seizure frequency compared to saline control group (days 40-45 post-SE): 3 fold
